This passage reports TGI and GI50 results from PubChem BioAssay (NCI).

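Where inhibition never reached the appropriate level, the endpoint shown equals the highest concentration tested. Otherwise, values were interpolated linearly from a five-concentration, 48-hour dose response in 96-well plates. GI50 = concentration required for 50% inhibition of growth. TGI marks complete inhibition of growth.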 A value given as a limit tells only on which side of the number the result lay.

Among the test systems are SK-MEL-2 melanoma; CAKI-1 renal; KM12 colon; M14 melanoma; SNB-75 CNS; HL-60(TB) leukemia; RPMI-8226 leukemia; EKVX NSCLC.
Common to all, as to assay: NCI-60 cell line screen, 48 h

In the case of `O=C(O)c1cscc1Cc1cccs1`, the TGI in the assay on SK-MEL-2 melanoma, in the assay on CAKI-1 renal, in the assay with KM12 colon, with M14 melanoma, in the assay with SNB-75 CNS and with HL-60(TB) leukemia was over 100 µM each time. In addition, the TGI in the assay with RPMI-8226 leukemia and in the assay on EKVX NSCLC was over 100 µM throughout.
For the molecule `O=C(CNc1ncco1)Nc1ccc(S(=O)(=O)c2ccc(NC(=O)CNc3ncco3)cc2)cc1`, the GI50 is 2.49 µM with SK-MEL-2 melanoma; 1.56 µM in the assay with CAKI-1 renal; 1.74 µM in the assay with KM12 colon; 1.7 µM in the assay on M14 melanoma; 6.04 µM in the assay on SNB-75 CNS; 4.72 µM in the assay on HL-60(TB) leukemia. For the same molecule, the figures for the GI50 with RPMI-8226 leukemia and in the assay on EKVX NSCLC were 1.11 µM and 2.23 µM, respectively. Besides, the TGI in the assay on SK-MEL-2 melanoma came to 5.65 µM; in the assay on CAKI-1 renal, 3.28 µM; in the assay on KM12 colon, 3.43 µM; in the assay on M14 melanoma it was 3.55 µM; in the assay with SNB-75 CNS, 20.7 µM; in the assay with HL-60(TB) leukemia, 21.3 µM. The TGI in the assay with RPMI-8226 leukemia amounted to 3.01 µM; in the assay with EKVX NSCLC, 9 µM.
As to `NC(=S)N/N=C\c1nccc2c(N)cccc12`, the GI50 in the assay on SK-MEL-2 melanoma was 2.79 µM; with CAKI-1 renal it was 0.243 µM; with KM12 colon, 0.38 µM; in the assay with M14 melanoma, 0.153 µM; with SNB-75 CNS, 0.139 µM; with HL-60(TB) leukemia, 0.181 µM. The GI50 in the assay with RPMI-8226 leukemia was 0.223 µM; in the assay with EKVX NSCLC it was 0.803 µM. Also, the TGI in the assay with SK-MEL-2 melanoma was over 100 µM; in the assay on CAKI-1 renal, 1.01 µM; in the assay on KM12 colon it was over 100 µM; with M14 melanoma it was 0.317 µM; in the assay with SNB-75 CNS, 87.5 µM; in the assay on HL-60(TB) leukemia, 11.7 µM. The TGI with RPMI-8226 leukemia was over 82.8 µM; in the assay on EKVX NSCLC, over 100 µM.
Turning to `O=[N+]([O-])c1ccc(/C=C(/c2ccc([N+](=O)[O-])o2)S(=O)(=O)c2ccccc2)o1`, the TGI is 35.8 µM with SK-MEL-2 melanoma; 33 µM in the assay with CAKI-1 renal; 32.6 µM with KM12 colon; 25.5 µM in the assay on M14 melanoma; 33.7 µM in the assay with SNB-75 CNS; 8.67 µM in the assay on HL-60(TB) leukemia. Moreover, the TGI in the assay with RPMI-8226 leukemia amounted to 0.483 µM; in the assay on EKVX NSCLC it was 22.8 µM.
Turning to `CCCCCCC#CC#Cc1cccc(=O)o1`, the GI50 with SK-MEL-2 melanoma is 9.27 µM; with CAKI-1 renal, 3.4 µM; with KM12 colon, 3.83 µM; in the assay on M14 melanoma it was 0.878 µM; with SNB-75 CNS, 4.34 µM; with RPMI-8226 leukemia, 1.72 µM. The GI50 in the assay on EKVX NSCLC is 13.8 µM. The TGI is over 100 µM in the assay on SK-MEL-2 melanoma; 9.2 µM with CAKI-1 renal; 14.3 µM with KM12 colon; 2.8 µM in the assay on M14 melanoma; 37.3 µM with SNB-75 CNS; 27.3 µM in the assay on RPMI-8226 leukemia. The molecule further registered a TGI in the assay with EKVX NSCLC of 31.7 µM.
With `C(=C\c1nccc2c1[nH]c1ccccc12)/c1ccccc1`, the GI50 with SK-MEL-2 melanoma is 5.82 µM; in the assay with KM12 colon, 2.15 µM; in the assay with M14 melanoma, 2.91 µM; with SNB-75 CNS, 2.76 µM; in the assay on HL-60(TB) leukemia, 2.07 µM; in the assay on RPMI-8226 leukemia, 1.07 µM. In addition, the GI50 in the assay on EKVX NSCLC was 1.72 µM. For the same molecule, the TGI in the assay with SK-MEL-2 melanoma was 39.7 µM; with KM12 colon, 11.3 µM; with M14 melanoma it was over 100 µM; in the assay with SNB-75 CNS it was 21.9 µM; with HL-60(TB) leukemia, 5.55 µM; with RPMI-8226 leukemia it was 3.92 µM. The molecule further gave a TGI with EKVX NSCLC of 59.6 µM.
For `COc1cc(NCC2COc3c(ccc(OC)c3OC)C2=O)c([N+](=O)[O-])cc1OC` (configuration not stated), the TGI in the assay with SK-MEL-2 melanoma, with CAKI-1 renal, with KM12 colon, in the assay on M14 melanoma, in the assay with SNB-75 CNS and in the assay on HL-60(TB) leukemia was over 100 µM throughout. Also, the TGI in the assay with RPMI-8226 leukemia and with EKVX NSCLC was over 100 µM in each case.
`Cc1cc(C)c2c(SCc3ccc(Cl)cc3Cl)nc(N)nc2n1`: the TGI in the assay with SK-MEL-2 melanoma, with CAKI-1 renal, in the assay with KM12 colon, in the assay with M14 melanoma, in the assay on SNB-75 CNS and in the assay with HL-60(TB) leukemia was over 100 µM each time. Moreover, the TGI with RPMI-8226 leukemia and with EKVX NSCLC was over 100 µM throughout.
In the case of `CCc1c(O)c2c(c(O)c1C(C)=O)C(=O)c1c(cc(O)c(C(=O)O)c1C(=O)O)C2=O`, the TGI in the assay on SK-MEL-2 melanoma, with CAKI-1 renal, in the assay with KM12 colon, in the assay with M14 melanoma, with SNB-75 CNS and with RPMI-8226 leukemia was over 100 µM in each case. The molecule also returned a TGI in the assay on EKVX NSCLC of over 100 µM.
As for `O=C(Nc1ccc(Cl)cc1)c1cc(S(=O)(=O)Nc2nnc(-c3ccccc3)c(-c3ccccc3)n2)c(SCc2ccccc2)cc1Cl`, the GI50 in the assay with SK-MEL-2 melanoma is 41.3 µM; in the assay with CAKI-1 renal it was 24.8 µM; in the assay on KM12 colon it was 21.9 µM; in the assay on M14 melanoma, 21.2 µM; in the assay with HL-60(TB) leukemia, 23.3 µM; in the assay with EKVX NSCLC, 32.1 µM. The TGI in the assay on SK-MEL-2 melanoma is over 100 µM; with CAKI-1 renal, over 59 µM; with KM12 colon it was over 62 µM; with M14 melanoma, 51.6 µM; in the assay on HL-60(TB) leukemia, over 68.3 µM; in the assay with EKVX NSCLC it was over 63.8 µM.
For the molecule `CC(C)(C)OC(=O)CN1CCc2c(sc3ncnc(N/N=C/c4cccc5ccccc45)c23)C1`, the GI50 was 5 µM in the assay on SK-MEL-2 melanoma; 3.3 µM with CAKI-1 renal; 3.53 µM with KM12 colon; 1.04 µM in the assay on SNB-75 CNS; 2.55 µM in the assay on HL-60(TB) leukemia; 1.05 µM in the assay with RPMI-8226 leukemia. For the same molecule, the GI50 in the assay with EKVX NSCLC was 2.22 µM. Moreover, the TGI was 12.3 µM in the assay with SK-MEL-2 melanoma; 18.7 µM with CAKI-1 renal; 9.8 µM in the assay with KM12 colon; 14.4 µM in the assay on SNB-75 CNS; 19.2 µM in the assay with HL-60(TB) leukemia; 4.22 µM in the assay on RPMI-8226 leukemia. Besides, the TGI in the assay with EKVX NSCLC was over 33.3 µM.
With `COC(=O)OCc1ccc2c(c1)C(=O)c1c-2n(CCCBr)c(=O)c2cc([N+](=O)[O-])ccc12`, the GI50 with SK-MEL-2 melanoma was over 100 µM; with CAKI-1 renal, 35.5 µM; in the assay on KM12 colon it was over 100 µM; in the assay on SNB-75 CNS it was 14.9 µM; in the assay on HL-60(TB) leukemia, 70.2 µM; in the assay with EKVX NSCLC, 74.3 µM. Besides, the TGI was over 100 µM in the assay with SK-MEL-2 melanoma; 75.4 µM in the assay with CAKI-1 renal; over 100 µM in the assay with KM12 colon; 34.4 µM in the assay with SNB-75 CNS; over 100 µM in the assay on HL-60(TB) leukemia; over 100 µM in the assay with EKVX NSCLC.
